1 substance from patent US9186390B2, “Methods and uses of TIE2 binding and/or activating agents” (Sunnybrook Health Sciences Center, priority 2010, dated 2015) can be followed below.

Entries after “also recorded” stand apart in the source; their conditions may differ.

For one assay, the system named is acute asthma mice. Description: Acute asthma model (ovalbumin sensitization, intranasal challenge). The format is in vivo, Balb/c mice. The method, then:
(Chronic asthma model) Seven week old female Balb/c mice were injected intraperitoneally (IP) with 20 μg of chicken ovalbumin (OVA) absorbed with 1 mg aluminum hydroxide, an adjuvant known to promote the development of a Th2 response by the immune system, on day 0 (denoted by first day injection) and day 7. Full body inhaled exposure to OVA was initiated at day 21. Briefly, these treatments utilized an InExpose full body aerosol chamber (Scireq, Montreal, Canada) where a 1% OVA solution, suspended in PBS, pH 7.45, was nebulized at 0.2 mL/min with a filtered room air flow rate of 2400 mL/min for a total period of 30 minutes, 3 times a week for either 42 (FIG. 13A) or 62 days (FIG. 13B). (Acute asthma model) Seven week old female Balb/c mice were injected intraperitoneally with 50 μg of chicken OVA absorbed with 1 mg aluminum hydroxide on day 0 (denoted by first day injection) and day 7. Aqueous OVA ([…] in PBS) was delivered intranasally daily from day 20 to day 24 (FIG. 2), Vasculotide or saline vehicle (control, PBS) was delivered to the mice via IP injections.
Blood was collected from the left ventricle of anaesthetized mice into heparinized 1 cc syringes. Following collection, blood was placed into Li-heparin microtubes. Subsequently, the tubes were centrifuged at 3000 RPM for 15 minutes at 4° C. Plasma was collected from the top of the samples and frozen at −80° C. for later analysis. The remaining buffy coat and red blood cells were lysed then fixed in 1× lyse/fix buffer (BD Biosciences, Mississauga, Canada) according to manufacturer's instructions.
Twenty-four hours after last aerosol exposure and immediately following exsanguinations, tissue was dissected from neck to expose trachea. A small lateral incision was made in the trachea to allow passage of 23 gauge lavage catheter into trachea. The catheter, attached to a 3 cc syringe containing warmed Hanks buffer, was carefully passed into the lumen of the trachea. A suture was secured around the trachea with a knot to secure the catheter in place. Buffer (1 cc) was injected slowly into the lungs and fully aspirated three times. The volume of recovered buffer was recorded for each animal to facilitate calculation of BAL infiltrate.
Analysis of plasma samples generated for the asthma study was the same as that outlined for the atopic dermatitis study with one small modification. Plasma from mice used in the asthma study was diluted 1:4 instead of 1:8 for the atopic dermatitis samples.
(BAL analysis) Collected BAL fluid was centrifuged at 1000 RPM for 10 minutes at 4° C. BAL fluid was removed and collected for subsequent CBA analysis. The BAL cell pellet was lysed/fixed in 1× lyse/fix buffer according to manufacturer's instructions (BD Biosciences, Mississauga, Canada). The total number of cells contained in each sample was determined by flow cytometry using flow-set beads (Count Bright Beads, Invitrogen), to facilitate sample volume and cell count calculations. A total of 7000 beads were counted for each sample. Flow cytometry analysis was gated on FSC/SSC to eliminate debris and dead cells. Differential cell count analysis was also performed by FACS where surface marker antibodies were used as follows: eosinophils (SSC^hi FITCmed Ige^med), neutrophils (SSC^med FITC^hi Ige^med), monocytes (SSC^med CD11b^+ CD115^+) and lymphocytes (SSC^lo and CD4^+ or CD8^+). In addition to monocyte markers (SSC^med CD11b^+ CD115^+), these cell populations were further characterized using antibodies specific for Tie2, TLR4, and Ly6C. Ly6C^low and Ly6C^high further define monocytes as classical, resident monocytes or inflammatory monocytes, respectively. Identified neutrophils were further labelled with antibodies to Tie2 and TLR4. All cell suspensions were incubated with purified anti-CD16/CD32 mAb (BD Biosciences, Mississauga, ON, Canada) to block non-specific background caused by Fc receptors, followed by incubation with the specific antibodies. […]

The target of another assay is T1, Tie2 receptor (Mus musculus, UniProt Q02858).
T1 construct: from tissue; host or cells: lung of CD1 mice (in vivo dosing, lung homogenate)
T1 sequence (Q02858 23-1122): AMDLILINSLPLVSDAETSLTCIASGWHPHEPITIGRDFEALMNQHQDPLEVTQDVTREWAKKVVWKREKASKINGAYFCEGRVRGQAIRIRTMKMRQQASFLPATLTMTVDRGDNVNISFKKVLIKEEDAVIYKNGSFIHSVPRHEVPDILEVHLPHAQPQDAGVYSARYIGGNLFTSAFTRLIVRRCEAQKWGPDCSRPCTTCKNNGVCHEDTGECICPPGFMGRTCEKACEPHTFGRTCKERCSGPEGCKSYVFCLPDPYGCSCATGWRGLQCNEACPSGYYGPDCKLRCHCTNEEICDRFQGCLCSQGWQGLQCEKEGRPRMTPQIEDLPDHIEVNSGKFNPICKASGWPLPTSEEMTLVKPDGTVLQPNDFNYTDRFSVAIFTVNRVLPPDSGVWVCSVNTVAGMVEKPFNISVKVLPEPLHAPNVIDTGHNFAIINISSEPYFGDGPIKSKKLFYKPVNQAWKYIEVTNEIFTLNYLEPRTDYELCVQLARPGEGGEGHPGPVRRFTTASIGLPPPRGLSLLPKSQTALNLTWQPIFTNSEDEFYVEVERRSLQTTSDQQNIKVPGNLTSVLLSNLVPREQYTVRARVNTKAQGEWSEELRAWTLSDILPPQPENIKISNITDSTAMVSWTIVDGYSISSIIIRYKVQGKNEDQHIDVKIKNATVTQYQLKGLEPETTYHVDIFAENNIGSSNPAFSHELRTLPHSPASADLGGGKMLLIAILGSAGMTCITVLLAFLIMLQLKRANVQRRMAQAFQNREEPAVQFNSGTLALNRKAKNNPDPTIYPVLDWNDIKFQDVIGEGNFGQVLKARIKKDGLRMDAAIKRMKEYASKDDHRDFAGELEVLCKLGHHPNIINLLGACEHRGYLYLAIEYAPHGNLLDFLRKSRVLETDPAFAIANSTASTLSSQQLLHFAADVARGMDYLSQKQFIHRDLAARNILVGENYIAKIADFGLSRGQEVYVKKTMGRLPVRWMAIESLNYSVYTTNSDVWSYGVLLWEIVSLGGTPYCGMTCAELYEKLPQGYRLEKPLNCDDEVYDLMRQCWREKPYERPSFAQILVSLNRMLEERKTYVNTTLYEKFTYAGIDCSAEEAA
Description: Tie2 activation in vivo (Tie2 immunoprecipitation from lung lysates, pY Tie2 western blot). To be noted: for time points at which activation of Tie2 (pY Tie2) was evident: pooled lung lysates of three mice. Also noted: species or system CD1 mice. The method, then:
The following commercially available antibodies were used: monoclonal anti-Tie2 (Phaminogen), polyclonal anti-Tie2 (Santa Cruz Biotechnology) and monoclonal anti-pY (clone 4G10, Upstate Biotechnology). Lung lysates were prepared and immunoprecipitated in full RIPA buffer (50 mM Tris-HCl, pH 7.4, 150 mM NaCl, 1 mM PMSF, 1 mM EDTA, 5 μg/ml Aprotinin 5 μg/ml Leupeptin, 1% Triton x-100, 1% Sodium deoxycholate, 0.1% SDS). Proteins were resolved in 10% PAGE according to Laemlli and transferred to PVDF membrane for subsequent antibody probing.
Purified Vasculotide was examined for its ability to activate the Tie2 receptor tyrosine kinase in CD1 mice (FIG. 1A). Three mice per group were injected intraperitoneally (IP) with either Vasculotide (500 ng-12.5 μg) or vehicle (PBS) control. After one hour, mice were sacrificed and lung homogenates were prepared for immunoblot analysis. […] This effect is particularly evident when total protein loading is accounted for (see pan Tie2, lower panel). While this may seem somewhat paradoxical, this phenomenon has also been reported by others while investigating the effect of Ang1 on Tie2 activation (Brkovic et al. (2007) J. Leukoc. Biol. 81(4), 1093-1101), Sturn et al. (2005) Microcirculation 12(5), 393-403, Murdoch et al. (2007) J Immunol 178(11), 7405-7411, van der Geer et al. (1994) Ann. Rev. Cell Biol. 10, 251-337, Gruber et al. (1995) Blood 86(7), 2488-2493, Maliba et al. (2008) J. Leukoc. Biol. 83(2), 352-360, and Van Slyke et al. (2009) Tissue Eng. Part A 15(6), 1269-1280).
To assess the duration of Tie2 activation following Vasculotide administration, three mice per time point were injected with 2 μg intraperitoneally (I.P.) or by gavage (P.O.). Lung lysates were prepared from each of the mice at the indicated times following initial dosing (FIG. 1B). Equal quantities of protein from each group were pooled and immunoprecipitated for Tie2 to establish an average Tie2 activation for each group. Activation of Tie2 (see pY Tie2, upper panels) was evident at time points ranging from 24-72 hours in the I.P. injected mice. By 96 hours post injection, the Tie2 receptor phosphorylation had returned to basal (PBS stimulated) levels.
(In general: A western blot detects proteins with antibodies after separation by electrophoresis.)

For the substance “Vasculotide: Modified T7 peptide (CHHHRHSF, SEQ ID NO:2) conjugated to 10 kDa tetrameric polyethylene glycol-maleimide; Tie2 binding peptide mimetic”, in the assay on acute asthma mice (acute asthma, d24), the “classical monocytes (Ly6C−) in BAL” value is recorded as “increased”, the “number of peripheral blood mononuclear cells” value is “prevented a significant increase”, the “plasma IL-4 (cytometric bead array)” value is given as “decreased” and the “plasma IL-5 (cytometric bead array)” value is “decreased”. In addition, in the assay with acute asthma mice (acute asthma, d24), the “plasma IL-13 (cytometric bead array)” value is listed as “decreased”, the “plasma MCP-1 (cytometric bead array)” value is “decreased”, the “plasma MIP1α (cytometric bead array)” value is recorded as “decreased” and the “plasma MIP1β (cytometric bead array)” value is recorded as “decreased”. In the assay with acute asthma mice (acute asthma, d24), the “plasma RANTES (cytometric bead array)” value was “decreased” and the “plasma TNF (cytometric bead array)” value is recorded as “decreased”. For the same substance, in the assay on acute asthma mice (acute asthma, d24, vs PBS asthmatic controls), the “inflammatory monocytes (Ly6C+) in BAL” value is “significantly fewer; also recorded: decreased”. Further, in the assay on acute asthma mice (acute asthma, day 24), the “BAL eosinophil absolute counts” value is given as “reduced; also recorded: statistical reduction”, the “BAL number of lymphocytes” value is “did not affect; also recorded: non-statistical trend towards decreased”, the “BAL number of monocytes” value is listed as “did not affect” and the “BAL number of neutrophils” value was “did not affect; also recorded: non-statistical trend towards decreased”. Further, in the assay with acute asthma mice (acute asthma, systemic (IP) treatment, flow cytometry), the “reduction of total absolute BAL counts” value is recorded as 25%. Besides, the “BAL cell numbers in the absence of asthma” value in the assay on acute asthma mice (non-asthmatic mice) is given as “no effect”. In the assay with Tie2 receptor (2 μg I.P.), the “time points at which activation of Tie2 (pY Tie2) was evident” value was 24-72 hours. Further, the “time points at which activation of Tie2 (pY Tie2) was evident” value in the assay with Tie2 receptor (2 μg I.P., listed as Vasc-PEG) is “at least 72 hours”. Also, the “time by which Tie2 receptor phosphorylation had returned to basal (PBS stimulated) levels” value with Tie2 receptor (2 μg I.P., post injection) came out at 96 h. Further, the “Tie2 phosphorylation after gavage (oral availability)” value with Tie2 receptor (2 μg P.O., two hours post gavage) was “did not yield increased activation”. For the same substance, the “Tie2 receptor-activating activity at higher doses” value with Tie2 receptor (I.P. doses above 500 ng up to 12.5 μg, 1 hour) is reported as “reduced receptor-activating activity”. For the same substance, the “dose that activated Tie2 optimally (pY Tie2)” value with Tie2 receptor (I.P., 1 hour in circulation, lung homogenates, doses 500 ng-12.5 μg) is reported as 500 ng/25-30 g mouse.
